Test results from patent US12486251B2 (PHARMABLOCK SCIENCES (NANJING) , INC., priority 2020, dated 2025).

Target: CBP recombinant proteins (Homo sapiens (Human), UniProt Q92793)
Assay: Competitive HTRF assay for affinity to CBP recombinant protein
Type: binding
Settings: His-tagged CBP 5 nM, biotin-labeled ligand 50 nM, 1% DMSO
Protocol: The affinity of the compounds synthesized in the present patert to the CBP recombinant proteins was determined by competitive HTRF method. His-tagged cyclic adenosine monophosphate response element binding protein (CREB-binding protein, CBP) was expressed in Escherichia coli system and further purified. CBP biotinylated ligands were all self-made. The BL21 star (DE3) competert cells transfected with His-tagged CBP protein genes at N-terminal were cultured at 37° C. for 16 h until the OD value was between 0.6 and 0.8, induced by 0.5 mM of IPTG and cultured overnight. The supernatant of cell lysate was purified by a Ni-ion affinity column and a Superdex75 molecular sieve column sequentially. The purity of resulting CBP proteins was 95%. The fluorescent donor reagent MAb Anti 6HIS—Eu cryptate Gold (Cisbio #61HI2KLA), the receptor reagent Streptavidin-XL665 (#610SAXLA) and the detection buffer (#62SDBRDD) required for HTRF were obtained from CISBIO BIOASSAYS (Codolet, France). Tris(2-carboxyethyl)phosphine hydrochloride (TCEP), sodium chloride, adenosine triphosphate (ATP), Tween-20, dimethylsulfoxide (DMSO), bovine serum albumin (BSA) and HEPES buffer were obtained from SIGMA at the highest level commercially available.
The general procedure of the competitive HTRF assay for the affinity to CBP recombinant proteins is as follows: 0.05% Tween-20 and 1 mM of TCEP were added immediately before the assay, and the assay was performed in a buffer consisting of 0.1 mg/ml BSA, 50 mM of HEPES and 5 mM of NaCl of pH 7.5. 2.5 μL of compound solution in a determination buffer with 4% DMSO and 5 μL of CBP solution in a determination buffer were added to a white low-volume 384-well microtiter plate, incubated at room temperature for 20 min, and then incubated at room temperature for 40 min by adding 2.5 μL of biotin-labeled ligand solution to the determination buffer. The final concentrations of CBP, biotin-labeled ligand and DMSO were 5 nM, 50 nM and 1%, respectively. Then, 5 μL of MAb Anti 6HIS—Eu cryptate Gold and […] of Streptavidin-XL665 in detection buffers from the manufacturer were added to the mixture, and the mixture was incubated for another 60 min. The final concentration of Streptavidin-XL665 was 12.5 nM, and MAb Anti 6HIS—Eu cryptate Gold was diluted according to the final concentration provided by the supplier. The multimode reader Spark from TECAN (Mannedorf, Switzerland) was used to read the plate to detect the homogeneous time-resolved fluorescence intensity of two groups, in which the excitation wavelength was 320 nm and the emission wavelengths were 665 nm and 620 nm. The IC50 value of the inhibitor was obtained by fitting fluorescence intensity ratios at 665 nm/620 nm with respect to the inhibitor concentration in an S-shaped dose-response curve by using Prism 7 (La Jolla, 15 CA).

Sequence of CBP recombinant proteins (Q92793 whole entry): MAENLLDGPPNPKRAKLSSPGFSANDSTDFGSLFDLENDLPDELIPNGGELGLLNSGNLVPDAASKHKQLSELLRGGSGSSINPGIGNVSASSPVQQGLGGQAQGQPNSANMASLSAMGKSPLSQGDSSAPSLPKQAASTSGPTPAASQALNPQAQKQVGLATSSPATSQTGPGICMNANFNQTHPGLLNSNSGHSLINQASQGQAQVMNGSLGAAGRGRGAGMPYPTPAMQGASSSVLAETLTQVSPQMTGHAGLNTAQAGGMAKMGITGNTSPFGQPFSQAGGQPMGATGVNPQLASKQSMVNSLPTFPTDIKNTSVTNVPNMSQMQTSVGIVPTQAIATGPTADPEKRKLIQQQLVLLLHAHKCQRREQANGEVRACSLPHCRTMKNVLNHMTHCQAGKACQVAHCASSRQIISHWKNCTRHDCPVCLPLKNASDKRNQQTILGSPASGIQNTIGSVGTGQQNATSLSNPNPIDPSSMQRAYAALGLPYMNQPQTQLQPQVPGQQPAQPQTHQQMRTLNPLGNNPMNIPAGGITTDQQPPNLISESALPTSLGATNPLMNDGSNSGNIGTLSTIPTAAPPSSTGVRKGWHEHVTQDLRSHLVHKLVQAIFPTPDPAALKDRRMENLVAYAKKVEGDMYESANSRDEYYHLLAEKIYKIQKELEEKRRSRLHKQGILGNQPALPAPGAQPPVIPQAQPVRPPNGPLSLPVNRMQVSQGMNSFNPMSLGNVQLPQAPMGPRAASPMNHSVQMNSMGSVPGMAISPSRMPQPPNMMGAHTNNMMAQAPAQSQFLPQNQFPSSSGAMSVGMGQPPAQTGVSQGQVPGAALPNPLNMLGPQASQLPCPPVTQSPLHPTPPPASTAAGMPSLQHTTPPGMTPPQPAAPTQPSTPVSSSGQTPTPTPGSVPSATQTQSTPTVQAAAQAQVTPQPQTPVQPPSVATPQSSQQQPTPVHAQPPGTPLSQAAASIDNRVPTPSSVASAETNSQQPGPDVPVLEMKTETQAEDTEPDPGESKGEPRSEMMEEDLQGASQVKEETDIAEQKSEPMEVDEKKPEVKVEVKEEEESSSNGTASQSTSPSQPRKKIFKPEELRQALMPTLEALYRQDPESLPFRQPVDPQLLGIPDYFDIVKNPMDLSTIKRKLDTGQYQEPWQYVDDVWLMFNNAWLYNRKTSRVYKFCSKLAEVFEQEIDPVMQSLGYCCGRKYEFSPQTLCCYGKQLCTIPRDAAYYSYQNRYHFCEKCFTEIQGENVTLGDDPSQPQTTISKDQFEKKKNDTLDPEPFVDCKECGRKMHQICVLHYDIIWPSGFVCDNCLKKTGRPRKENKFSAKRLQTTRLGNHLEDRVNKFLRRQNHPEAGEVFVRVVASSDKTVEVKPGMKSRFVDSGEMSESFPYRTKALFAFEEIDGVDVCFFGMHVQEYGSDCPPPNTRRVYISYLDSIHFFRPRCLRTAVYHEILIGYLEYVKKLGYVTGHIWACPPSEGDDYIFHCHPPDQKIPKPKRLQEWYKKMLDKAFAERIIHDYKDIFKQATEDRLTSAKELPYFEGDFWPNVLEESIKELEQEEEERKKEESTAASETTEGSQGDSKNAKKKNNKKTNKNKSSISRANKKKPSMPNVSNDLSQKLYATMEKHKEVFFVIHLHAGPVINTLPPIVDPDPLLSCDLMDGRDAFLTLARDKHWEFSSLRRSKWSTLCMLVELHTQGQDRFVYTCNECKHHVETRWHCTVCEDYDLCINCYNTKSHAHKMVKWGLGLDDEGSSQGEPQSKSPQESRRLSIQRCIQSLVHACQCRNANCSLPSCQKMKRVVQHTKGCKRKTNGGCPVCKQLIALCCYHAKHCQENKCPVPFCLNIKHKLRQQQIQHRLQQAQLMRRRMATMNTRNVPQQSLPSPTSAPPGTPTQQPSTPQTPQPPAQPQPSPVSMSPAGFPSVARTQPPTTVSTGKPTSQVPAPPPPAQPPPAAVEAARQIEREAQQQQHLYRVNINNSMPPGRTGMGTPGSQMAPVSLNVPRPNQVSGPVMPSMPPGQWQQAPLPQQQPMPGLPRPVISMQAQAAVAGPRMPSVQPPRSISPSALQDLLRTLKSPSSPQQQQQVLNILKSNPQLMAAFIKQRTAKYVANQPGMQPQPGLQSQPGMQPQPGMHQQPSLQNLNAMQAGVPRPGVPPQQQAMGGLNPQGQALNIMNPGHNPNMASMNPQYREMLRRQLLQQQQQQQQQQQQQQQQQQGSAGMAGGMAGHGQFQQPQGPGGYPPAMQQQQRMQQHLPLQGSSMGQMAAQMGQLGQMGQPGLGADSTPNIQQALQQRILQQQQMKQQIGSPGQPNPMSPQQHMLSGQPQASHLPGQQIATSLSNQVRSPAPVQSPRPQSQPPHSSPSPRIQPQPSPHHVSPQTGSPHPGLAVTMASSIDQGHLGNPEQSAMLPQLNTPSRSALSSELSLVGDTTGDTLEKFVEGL

IC50	Compound
27 nM	CNC(=O)c1cc2cc(F)cnc2c(N2CCCc3cc(C4CCN(C(C)=O)CC4)c(C(F)F)cc32)n1 [Example 52, 8-[6-(1-acetylpiperidin-4-yl)-7-difluoro-methyl-3,4-dihydro-2H-quinolin-1-yl]-3-fluoro-[1,7] naphthyridine-6-carboxylic acid methylamide]
14 nM	CNC(=O)c1cc2cccnc2c(N2CCCc3cc(-c4cnn(C5CNC5)c4)c(C(F)F)cc32)n1 [Example 53, 8-[6-(1-azetidin-3-yl-1H-pyrazol-4-yl)-7-difluoromethyl-3,4-dihydro-2H-quinolin-1-yl]-[1,7]naphthyridine-6-carboxylic acid methylamide]
11 nM	CNC(=O)c1cc2cccnc2c(N2CCCc3cc(-c4cnn(C5CN(C)C5)c4)c(C(F)F)cc32)n1 [Example 54, 8-{7-difluoromethyl-6-[1-(1-methyl-azetidin-3-yl)-1H-pyrazol-4-yl]-3,4-dihydro-2H-quinolin-1-yl}-[1,7]naphthyridine-6-carboxylic acid methylamide]
15 nM	CNC(=O)c1cc2cccnc2c(N2CCCc3cc(-c4cnn(CC#N)c4)c(C(F)F)cc32)n1 [Example 55, 8-[6-(1-cyanomethyl-1H-pyrazol-4-yl)-7-difluoromethyl-3,4-dihydro-2H-quinolin-1-yl]-[1,7]naphthyridine-6-carboxylic acid methylamide]
24 nM	CNC(=O)Cn1cc(-c2cc3c(cc2C(F)F)N(c2nc(C(=O)NC)cc4ccccc24)CCC3)cn1 [Example 56, 1-[7-difluoromethyl-6-(1-methylcarbamoylmethyl-1H-pyrazol-4-yl)-3,4-dihydro-2H-quinolin-1-yl]-isoquinoline-3-carboxylic acid methylamide]
36 nM	CNC(=O)c1cc2ccccc2c(N2CCCc3cc(-c4cnn(C)c4)c(Cl)cc32)n1 [Example 57, 1-[7-chloro-6-(1-methyl-1H-pyrazol-4-yl)-3,4-dihydro-2H-quinolin-1-yl]-isoquinoline-3-carboxylic acid methylamide]
100 nM	CNC(=O)c1ccc2c(c1)CCCN2c1nc(C(=O)NC)cc2ccccc12 [Example 58, 1-(3-methylcarbamoylisoquinolin-1-yl)-1,2,3,4-tetrahydroquinoline-6-carboxylic acid methylamide]
402 nM	CNC(=O)c1cc2ccccc2c(N2CCCc3cc(CO)ccc32)n1 [Example 59, 1-(6-hydroxymethyl-3,4-dihydro-2H-quinolin-1-yl)-isoquinoline-3-carboxylic acid methylamide]
58 nM	CNC(=O)c1cc2ccccc2c(N2CCOc3cc(-c4cnn(C)c4)ccc32)n1 [Example 60, 1-[7-(1-methyl-1H-pyrazol-4-yl)-2,3-dihydro-benzo[1,4]oxazin-4-yl]-isoquinoline-3-carboxylic acid methylamide]
70 nM	CNC(=O)c1cc2c(c(N3CCCc4cc(-c5cnn(C)c5)c(C(F)F)cc43)n1)CCC2 [Example 61, 1-[7-difluoromethyl-6-(1-methyl-1H-pyrazol-4-yl)-3,4-dihydro-2H-quinolin-1-yl]-6,7-dihydro-5H-[2]pyrazine-3-carboxylic acid methylamide]
287 nM	CNC(=O)c1cc2c(c(N3CCCc4cc(-c5cnn(C)c5)c(C(F)F)cc43)n1)COC2 [Example 62, 4-(7-(difluoro-methyl)-6-(1-methyl-1H-pyrazol-4-yl)-3,4-dihydroquinolin-1(2H)-yl)-N-methyl-1,3-dihydrofuran [3,4-c]pyridine-6-carboxamide]
136 nM	CNC(=O)c1cc2ccoc2c(N2CCCc3cc(-c4cnn(C)c4)c(C(F)F)cc32)n1 [Example 63, 7-[7-difluoromethyl-6-(1-methyl-1H-pyrazol-4-yl)-3,4-dihydro-2H-quinolin-1-yl]-furan[2,3-c]pyridine-5-carboxylic acid methylamide]
14 nM	CNC(=O)c1cc2ncccc2c(N2CCCc3cc(-c4cnn(C)c4)c(C(F)F)cc32)n1 [Example 64, 5-[7-difluoromethyl-6-(1-methyl-1H-pyrazol-4-yl)-3,4-dihydro-2H-quinolin-1-yl]-[1,6]naphthyridine-7-carboxylic acid methylamide]
12 nM	CNC(=O)c1cc2cccnc2c(N2CCOc3cc(-c4cnn(C)c4)c(C(F)F)cc32)n1 [Example 65, 8-[6-difluoromethyl-7-(1-methyl-1H-pyrazol-4-yl)-2,3-dihydro-benzo[1,4]oxazin-4-yl]-[1,7]naphthyridine-6-carboxylic acid methylamide]

Compound	IC50
CNC(=O)c1cc2cccnc2c(-c2ccc3c(c2)c(-c2cnn(C)c2)nn3C)n1 [Example 66, 8-[1-methyl-3-(1-methy 1-1H-pyrazol-4-yl)-1H-indazol-5-yl]-[1,7]naphthyridine-6-carboxylic acid methylamide]	49 nM
